In ChEMBL document CHEMBL1201862, “PubChem BioAssay data set” (2004):
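Five concentrations, 48 hours, 96-well plates. At the GI50, growth is halved.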 Activity calls are given as the source filed them. Rule as the data show it: active = GI50 up to about 1.1 µM and inactive = higher.

Assays:
Assay in all cases: growth of human tumour cells (NCI), 48 h
CCRF-CEM = test system: CCRF-CEM
SK-MEL-28 = test system: SK-MEL-28
MDA-MB-435 = test system: MDA-MB-435
RPMI-8226 = test system: RPMI-8226
OVCAR-5 = test system: OVCAR-5
SR = test system: SR
IGROV-1 = test system: IGROV-1
TK-10 = test system: TK-10
MDA-MB-231 = test system: MDA-MB-231
SK-MEL-2 = test system: SK-MEL-2
ACHN = test system: ACHN
SNB-19 = test system: SNB-19
PC-3 = test system: PC-3
Malme-3M = test system: Malme-3M
RXF 393 = test system: RXF 393
SN12C = test system: SN12C
CAKI-1 = test system: CAKI-1
MCF7 = test system: MCF7
SK-OV-3 = test system: SK-OV-3

Measured: GI50

c1ccc2sc(SCSc3nc4ccccc4s3)nc2c1
inactive: CCRF-CEM 47.4 µM | SK-MEL-28 > 100 µM | MDA-MB-435 > 100 µM | RPMI-8226 51.5 µM | OVCAR-5 > 100 µM | SR 7.08 µM | IGROV-1 > 100 µM | TK-10 66.4 µM | MDA-MB-231 > 100 µM | SK-MEL-2 > 100 µM | ACHN 74.8 µM | SNB-19 > 100 µM | PC-3 42.1 µM | Malme-3M > 100 µM | RXF 393 > 100 µM | SN12C > 100 µM | CAKI-1 > 100 µM

O=C1NC(=O)c2ccc([N+](=O)[O-])c3cccc1c23
inactive: SK-MEL-28 20.2 µM | MDA-MB-435 16.4 µM | RPMI-8226 14.5 µM | MCF7 11.2 µM | OVCAR-5 18.3 µM | IGROV-1 15.9 µM | TK-10 19.6 µM | MDA-MB-231 17.1 µM | SK-OV-3 23.1 µM | SK-MEL-2 32.3 µM | ACHN 19 µM | SNB-19 19.5 µM | PC-3 17.4 µM | RXF 393 15.5 µM | SN12C 17.4 µM | CAKI-1 23.5 µM

CC(=O)OCC1OC(N2C(=O)NC(=O)C3C=C4CCCCC4=CC32)CC1OC(C)=O (configuration not stated)
inactive: SK-MEL-28 > 100 µM | MDA-MB-435 > 100 µM | RPMI-8226 > 100 µM | MCF7 > 100 µM | OVCAR-5 > 100 µM | SR > 100 µM | IGROV-1 > 100 µM | TK-10 > 100 µM | MDA-MB-231 > 100 µM | SK-OV-3 > 100 µM | SK-MEL-2 > 100 µM | ACHN > 100 µM | SNB-19 > 100 µM | PC-3 > 100 µM | Malme-3M > 100 µM | SN12C > 100 µM

CCCCC(O)(c1ccccc1)C(O)(c1ccccc1)c1c(F)c(F)c(F)c(F)c1F (configuration not stated)
inactive: CCRF-CEM 25.4 µM | SK-MEL-28 27 µM | MDA-MB-435 31.8 µM | RPMI-8226 18.2 µM | MCF7 20.3 µM | OVCAR-5 18.3 µM | SR 25.3 µM | IGROV-1 33.3 µM | TK-10 26.4 µM | MDA-MB-231 16 µM | SK-OV-3 21.5 µM | ACHN 19.6 µM | SNB-19 41.8 µM | PC-3 19.1 µM | Malme-3M 16.7 µM | SN12C 17.1 µM

CCOC(=O)c1c2ccccc2n2c(=O)n(C)nnc12
inactive: CCRF-CEM > 100 µM | SK-MEL-28 > 100 µM | MDA-MB-435 > 53.7 µM | RPMI-8226 > 100 µM | MCF7 > 100 µM | OVCAR-5 > 100 µM | IGROV-1 > 100 µM | TK-10 > 75.5 µM | MDA-MB-231 > 100 µM | SK-OV-3 > 80.5 µM | SK-MEL-2 > 100 µM | ACHN > 84.1 µM | SNB-19 > 100 µM | PC-3 > 100 µM | Malme-3M > 100 µM | RXF 393 > 47.4 µM | SN12C > 100 µM | CAKI-1 > 100 µM

CCOP(=O)(OCC)[C@H]1OC(C)(C)O[C@@H]1CO
inactive: CCRF-CEM > 100 µM | SK-MEL-28 > 100 µM | MDA-MB-435 > 100 µM | RPMI-8226 > 100 µM | MCF7 > 100 µM | OVCAR-5 > 100 µM | IGROV-1 > 100 µM | TK-10 > 100 µM | MDA-MB-231 > 100 µM | SK-OV-3 > 100 µM | SK-MEL-2 > 100 µM | ACHN > 100 µM | SNB-19 > 100 µM | PC-3 > 100 µM | Malme-3M > 100 µM | SN12C > 100 µM | CAKI-1 > 100 µM

COc1cc(/C=C2\CCC/C(=C\c3ccc(OC(=O)CCCCC4CCSS4)c(OC)c3)C2=O)ccc1OC(=O)CCCCC1CCSS1 (configuration not stated)
inactive: CCRF-CEM 91.2 µM | SK-MEL-28 > 100 µM | MDA-MB-435 > 100 µM | RPMI-8226 > 100 µM | MCF7 > 100 µM | OVCAR-5 > 100 µM | IGROV-1 > 100 µM | TK-10 > 100 µM | MDA-MB-231 > 100 µM | SK-OV-3 > 100 µM | SK-MEL-2 > 100 µM | ACHN > 100 µM | SNB-19 > 100 µM | PC-3 > 100 µM | Malme-3M > 100 µM | RXF 393 > 100 µM | SN12C > 100 µM

CCO/C=N/C1=C(C#N)C(c2ccc(OC)c(OC)c2)c2c(-c3ccccc3)nn(-c3ccccc3)c2O1 (configuration not stated)
inactive: CCRF-CEM 2.23 µM | SK-MEL-28 15 µM | MDA-MB-435 17 µM | RPMI-8226 21.4 µM | MCF7 16.6 µM | OVCAR-5 10.7 µM | IGROV-1 3.16 µM | MDA-MB-231 19.2 µM | SK-OV-3 21.2 µM | SK-MEL-2 18.5 µM | ACHN 13.2 µM | SNB-19 15.9 µM | PC-3 13.6 µM | Malme-3M 19 µM | RXF 393 12.2 µM | SN12C 14.8 µM | CAKI-1 17 µM

COc1ccc(C2CC3(c4ccccc4)ON=C(c4ccccc4)N3c3ccccc3S2)cc1 (configuration not stated)
inactive: CCRF-CEM > 100 µM | SK-MEL-28 > 100 µM | MDA-MB-435 > 100 µM | RPMI-8226 > 100 µM | MCF7 > 100 µM | OVCAR-5 > 100 µM | IGROV-1 > 100 µM | TK-10 > 100 µM | MDA-MB-231 > 100 µM | SK-OV-3 > 100 µM | ACHN > 100 µM | PC-3 > 100 µM | Malme-3M > 100 µM | RXF 393 > 100 µM | SN12C > 100 µM | CAKI-1 > 100 µM

C=CCc1[nH]c2c(OCc3ccccc3)cc(N(CC=C)C(C)=O)cc2c1C
inactive: CCRF-CEM 22.3 µM | SK-MEL-28 16.9 µM | MDA-MB-435 17.1 µM | RPMI-8226 12.1 µM | MCF7 12.4 µM | OVCAR-5 14.1 µM | IGROV-1 14.4 µM | TK-10 16.4 µM | MDA-MB-231 10.7 µM | SK-OV-3 16.4 µM | SK-MEL-2 12.4 µM | ACHN 12.8 µM | SNB-19 12.8 µM | PC-3 6.76 µM | Malme-3M 16.4 µM | RXF 393 11.2 µM | SN12C 16 µM | CAKI-1 15.5 µM

CCn1c(=O)c2nc(SC)sc2n(-c2ccccc2)c1=O
inactive: CCRF-CEM > 100 µM | SK-MEL-28 > 100 µM | MDA-MB-435 > 100 µM | RPMI-8226 > 100 µM | MCF7 > 100 µM | OVCAR-5 > 100 µM | SR > 100 µM | IGROV-1 > 100 µM | TK-10 > 100 µM | MDA-MB-231 > 100 µM | SK-OV-3 > 100 µM | SK-MEL-2 > 100 µM | ACHN > 100 µM | SNB-19 > 100 µM | PC-3 > 100 µM | Malme-3M > 100 µM | RXF 393 > 100 µM | SN12C > 100 µM

CC(C)C1=CC23CCC4C(C)(C(=O)O)CCCC4(C)C2CC1C1C(=O)N(c2ccc(C(=O)O)cc2)C(=O)C13 (configuration not stated)
inactive: SK-MEL-28 > 100 µM | MDA-MB-435 > 100 µM | RPMI-8226 > 100 µM | MCF7 > 100 µM | IGROV-1 > 100 µM | TK-10 > 100 µM | MDA-MB-231 > 100 µM | SK-OV-3 > 100 µM | SK-MEL-2 > 100 µM | ACHN > 100 µM | SNB-19 > 100 µM | PC-3 > 100 µM | Malme-3M > 100 µM | RXF 393 > 100 µM | SN12C > 100 µM | CAKI-1 > 100 µM
